The NIST ThermoML archive (doi:10.1016/j.jct.2006.03.010)

Test: xn = mol fraction of the nth substance listed
Settings: 101 kPa, Liquid; for speed of sound: Linear variable-path acoustic interferometer

ClC(Cl)Cl [trichloromethane] + CCO
Settings	mass density, 298.15 K [kg/m3]	mass density, 308.15 K [kg/m3]	speed of sound, 298.15 K [m/s]	speed of sound, 308.15 K [m/s]	viscosity, 298.15 K [mPa·s]	viscosity, 308.15 K [mPa·s]
x1 = 0.0522	834.86	824.87	1129	1092	1.085	0.902
x1 = 0.1007	879.76	868.7	1114	1076	1.07	0.89
x1 = 0.1468	920.98	909.11	1101	1062	1.043	0.869
x1 = 0.2014	968.01	955.3	1085	1046	1.003	0.836
x1 = 0.2505	1008.24	994.85	1071	1034	0.956	0.803
x1 = 0.3005	1047.8	1033.7	1057	1022	0.901	0.764
x1 = 0.3491	1084.58	1069.92	1045	1011	0.86	0.732
x1 = 0.3999	1121.8	1106.5	1033	1000	0.809	0.696
x1 = 0.4505	1157.08	1141.59	1021	991	0.767	0.665
x1 = 0.5045	1193.09	1177.49	1011	982	0.73	0.64
x1 = 0.5509	1223.51	1207.46	1003	975	0.694	0.613
x1 = 0.6007	1254.55	1238.37	996	967	0.668	0.596
x1 = 0.6492	1284.3	1267.81	990	962	0.644	0.58
x1 = 0.7008	1314.71	1297.8	985	957	0.629	0.569
x1 = 0.7496	1342.79	1325.84	982	953	0.615	0.562
x1 = 0.8059	1374.26	1357.1	981	950	0.601	0.551
x1 = 0.8544	1400.99	1383.35	980	949	0.596	0.549
x1 = 0.8994	1425.35	1407.35	981	949	0.588	0.544
x1 = 0.9498	1452.14	1433.5	983	948	0.576	0.531
x1 = 1	1478.82	1459.45	985	950	0.556	0.513

ClC(Cl)Cl [trichloromethane] + CO
Settings	mass density, 298.15 K [kg/m3]	mass density, 308.15 K [kg/m3]	speed of sound, 298.15 K [m/s]	speed of sound, 308.15 K [m/s]	viscosity, 298.15 K [mPa·s]	viscosity, 308.15 K [mPa·s]
x1 = 0.0501	852.42	842	1080	1048	0.587	0.523
x1 = 0.0959	907.6	896.56	1060	1029	0.612	0.545
x1 = 0.1501	967.31	955.55	1041	1010	0.635	0.564
x1 = 0.2007	1018.13	1005.77	1028	997	0.651	0.576
x1 = 0.2499	1063.89	1050.91	1017	986	0.657	0.584
x1 = 0.3015	1107.99	1094.32	1007	976	0.663	0.586
x1 = 0.3502	1146.56	1132.48	1000	969	0.66	0.588
x1 = 0.3966	1180.85	1166.26	994	963	0.658	0.584
x1 = 0.4498	1217.39	1202.34	989	958	0.651	0.582
x1 = 0.5047	1252.37	1236.78	984	954	0.641	0.572
x1 = 0.5506	1279.51	1263.63	981	950	0.633	0.569
x1 = 0.6033	1308.68	1292.64	979	948	0.619	0.56
x1 = 0.6515	1333.97	1317.33	977	946	0.612	0.552
x1 = 0.7032	1359.31	1342.39	976	945	0.601	0.55
x1 = 0.751	1381.31	1363.96	976	944	0.592	0.536
x1 = 0.7987	1402.09	1384.31	976	944	0.583	0.531
x1 = 0.85	1423.32	1405.26	977	945	0.574	0.523
x1 = 0.902	1443.49	1425.07	979	946	0.567	0.516
x1 = 0.9505	1461.44	1442.54	982	948	0.561	0.515
x1 = 1	1478.82	1459.45	985	950	0.556	0.513
